# ChEMBL document CHEMBL2062378, “Antimycobacterial activity: a facile three-component [3+2]-cycloaddition for the regioselective synthesis of highly functionalised dispiropyrrolidines” (Bioorg Med Chem Lett, 2012)
# System: Mycobacterium tuberculosis
# Test: Antimycobacterial activity against INH-resistant Mycobacterium tuberculosis by alamar blue broth microdilution assay
# Type: functional
row,Compound,MIC90
1,CN1CC(c2ccc(OC(F)(F)F)cc2)C2(Cc3ccccc3C2=O)C12C(=O)c1ccccc1C2=O (stereo not drawn),12.2 µM
2,CN1CC(c2ccc(N3CCOCC3)cc2)C2(Cc3ccccc3C2=O)C12C(=O)c1ccccc1C2=O (stereo not drawn),27.2 µM
3,CN1CC(c2ccc(C(F)(F)F)cc2)C2(Cc3ccccc3C2=O)C12C(=O)c1ccccc1C2=O (stereo not drawn),13.6 µM
4,CN1CC(c2ccc(Cl)cc2)C2(Cc3ccccc3C2=O)C12C(=O)c1ccccc1C2=O (stereo not drawn),24.2 µM
5,NNC(=O)c1ccncc1 [ISONIAZID],11.2 µM
6,COc1ccc(C2CN(C)C3(C(=O)c4ccccc4C3=O)C23Cc2ccccc2C3=O)cc1 (stereo not drawn),> 6.25 µM
7,CN1CC(c2ccccc2)C2(Cc3ccccc3C2=O)C12C(=O)c1ccccc1C2=O (stereo not drawn),26.2 µM
8,CN1CC(c2cccc3c2OCO3)C2(Cc3ccccc3C2=O)C12C(=O)c1ccccc1C2=O (stereo not drawn),32.4 µM
9,CN1CC(c2ccc(Br)cc2)C2(Cc3ccccc3C2=O)C12C(=O)c1ccccc1C2=O (stereo not drawn),21.4 µM
10,CN1CC(c2cccc([N+](=O)[O-])c2)C2(Cc3ccccc3C2=O)C12C(=O)c1ccccc1C2=O (stereo not drawn),16.8 µM
11,CN1CC(c2cncc(-c3ccc(F)cc3)c2)C2(Cc3ccccc3C2=O)C12C(=O)c1ccccc1C2=O (stereo not drawn),5.12 µM
12,CN(C)c1ccc(C2CN(C)C3(C(=O)c4ccccc4C3=O)C23Cc2ccccc2C3=O)cc1 (stereo not drawn),43.3 µM
13,CN1CC(c2ccc(C(=O)O)cc2)C2(Cc3ccccc3C2=O)C12C(=O)c1ccccc1C2=O (stereo not drawn),18.3 µM
